Measurements reported in patent publication US20190062305A1, “PYRIDYL OR PYRAZINYL COMPOUNDS CARRYING A METHYL-BOUND ALPHA-AMINO ACID AMIDE GROUP” (ABBVIE DEUTSCHLAND GMBH & CO. KG, priority 2015, published 2019).
Structures can show the parent of a compound that is named as a salt. Where two headings read alike, the source gives them in different places.

Tests used:
[1] = Metabolic stability in human liver microsomes, unbound intrinsic clearance (Cl int/fu mic); format: in vitro ADME; conditions: pH 7.4, human liver microsomes 0.25 mg/mL, 0.5 μM compound, NADPH, read-out: Cl int, mic unb. (h) [l/h/kg] (unbound intrinsic clearance, human)
How it was run: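 Unbound intrinsic clearance is CLint divided by fu mic, with the unbound fraction measured by 4 h HTDialysis at 37 °C of 0.25 mg/ml microsomes spiked with 0.5 µM compound. For CLint, 0.5 µM compound was incubated with 0.25 mg/mL human microsomes and 1.0 mM NADPH (pH 7.4, 37 °C). Substrate loss over 30 min was measured by LC-MS/MS and t1/2 assumed first-order kinetics.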

5-HT2C receptor = target: T1, 5-HT2C receptor (Homo sapiens, UniProt P28335); assay: Human 5-HT2C functional assay (beta-arrestin2 recruitment, U2OS_HTR2C_β-Arrestin cells); format: cell-based; conditions: for EC50: beta-arrestin2 recruitment, U2OS_HTR2C_β-Arrestin cells, 1.5 h incubation, read-out: EC50 5-HT2C (potency in functional assay); for Emax: relative efficacy vs response to 10 μM 5-HT or maximal 5-HT effect (100%)
T1 construct: host or cells: U2OS
T1 sequence (P28335 33-458): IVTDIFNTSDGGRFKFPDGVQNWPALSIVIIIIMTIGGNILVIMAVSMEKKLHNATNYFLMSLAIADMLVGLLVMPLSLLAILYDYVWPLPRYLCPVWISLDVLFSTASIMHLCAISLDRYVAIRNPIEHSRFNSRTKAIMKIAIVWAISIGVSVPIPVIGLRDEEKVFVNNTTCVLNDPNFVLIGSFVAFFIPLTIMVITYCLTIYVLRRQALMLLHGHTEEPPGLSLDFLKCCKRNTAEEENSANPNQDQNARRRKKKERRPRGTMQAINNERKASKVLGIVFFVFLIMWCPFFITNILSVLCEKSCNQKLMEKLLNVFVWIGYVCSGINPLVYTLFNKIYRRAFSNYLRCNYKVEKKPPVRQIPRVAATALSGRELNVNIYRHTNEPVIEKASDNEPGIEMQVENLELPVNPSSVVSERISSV
T1 sequence (P32121 whole entry partner): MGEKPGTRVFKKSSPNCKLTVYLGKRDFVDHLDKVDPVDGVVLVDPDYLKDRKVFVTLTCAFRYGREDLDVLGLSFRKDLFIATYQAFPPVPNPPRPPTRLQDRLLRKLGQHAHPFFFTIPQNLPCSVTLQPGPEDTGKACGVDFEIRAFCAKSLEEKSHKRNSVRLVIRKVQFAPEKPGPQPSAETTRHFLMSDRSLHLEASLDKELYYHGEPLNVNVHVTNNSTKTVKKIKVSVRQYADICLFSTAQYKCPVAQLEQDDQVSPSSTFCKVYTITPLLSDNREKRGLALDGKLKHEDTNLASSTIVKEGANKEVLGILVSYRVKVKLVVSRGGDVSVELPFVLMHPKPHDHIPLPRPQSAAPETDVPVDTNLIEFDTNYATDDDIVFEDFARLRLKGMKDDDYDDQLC
How it was run: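 EC50 and relative efficacy came from 4-parameter variable-slope fits, normalised to 10 µM 5-HT or maximal 5-HT response (100%). Luminescent β-galactosidase enzyme-complementation signal was read after 1.5 h compound exposure in U2OS_HTR2C_β-Arrestin cells held in 1% serum medium from the prior day.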

Row | Structure (SMILES) | CLint scaled at 0.5 μM ([1]; human, liver microsomes) [L/h/kg] | EC50 (5-HT2C receptor) [nM] | Emax (5-HT2C receptor) [%] | CLint scaled at 0.5 μM [1] [L/h/kg]
1 | COc1nc(OCC2CC(F)(F)C2)c(F)cc1CNC(=O)[C@@H]1CCCN1C [Example 92, (2S)—N-[[6-[(3,3-Difluorocyclobutyl)methoxy]-5-fluoro-2-methoxy-3-pyridyl]-methyl]-1-methyl-pyrrolidine-2-carboxamide Hydrochloride] | < 5 | < 20 | > 70 | 
2 | COc1nc(OC2CCCC2F)c(F)cc1CNC(=O)[C@@H]1CCCN1 (stereo partly drawn) [Example 93, (2S)—N-[[5-Fluoro-6-(2-fluorocyclopentoxy)-2-methoxy-3-pyridyl]methyl]-pyrrolidine-2-carboxamide; 2,2,2-trifluoroacetic Acid] | < 5 | < 20 | > 70 | 
3 | COc1nc(OC2CC(F)(F)C2)c(F)cc1CNC(=O)[C@@H]1C[C@@H](F)CN1 [Example 94, (2S,4R)—N-[[6-(3,3-Difluorocyclobutoxy)-5-fluoro-2-methoxy-3-pyridyl]methyl]-4-fluoro-pyrrolidine-2-carboxamide Hydrochloride] | < 5 | < 20 | > 70 | 
4 | COc1nc(OC2CCCC3C2C3(F)F)c(F)cc1CNC(=O)[C@@H]1CCCN1 (stereo partly drawn) [Example 95, (2S)—N-[[6-(7,7-Difluoronorcaran-2-yl)oxy-5-fluoro-2-methoxy-3-pyridyl]methyl]-pyrrolidine-2-carboxamide] | 5 to 50 | < 20 | > 70 | 
5 | COc1nc(OCC2(C(F)F)CC2)c(F)cc1CNC(=O)[C@@H]1CCCN1C [Example 96, (2S)—N-[[6-[[1-(Difluoromethyl)cyclopropyl]methoxy]-5-fluoro-2-methoxy-3-pyridyl]methyl]-1-methyl-pyrrolidine-2-carboxamide; (2S,3S)-2,3-dihydroxybutanedioic Acid] | < 5 | < 20 | > 70 | 
6 | COc1nc(OCC2(C(F)F)CC2)c(F)cc1CNC(=O)[C@@H]1CCCN1 [Example 97, (2S)—N-[[6-[[1-(Difluoromethyl)cyclopropyl]methoxy]-5-fluoro-2-methoxy-3-pyridyl]methyl]pyrrolidine-2-carboxamide; (2S,3S)-2,3-dihydroxybutanedioic Acid] | < 5 | < 20 | > 70 | 
7 | COc1nc(OCC2(C(F)(F)F)CC2)c(F)cc1CN(C)C(=O)[C@@H]1CCCN1C [Example 98, (2S)—N-[[5-Fluoro-2-methoxy-6-[[1-(trifluoromethyl)cyclopropyl]methoxy]-3-pyridyl]methyl]-N,1-dimethyl-pyrrolidine-2-carboxamide Hydrochloride] | < 5 | 20 to 200 | 50 to 70 | 
8 | COc1nc(OC2CC(F)(F)C2)c(F)cc1CN(C)C(=O)[C@@H]1CCCN1C [Example 99, (2S)—N-[[6-(3,3-Difluorocyclobutoxy)-5-fluoro-2-methoxy-3-pyridyl]methyl]-N,1-dimethyl-pyrrolidine-2-carboxamide Hydrochloride] | < 5 | 20 to 200 | 50 to 70 | 
9 | COc1nc(OCC(F)(F)F)c(F)cc1CNC(=O)[C@@H]1CCCN1C [Example 100, (2S)—N-[[5-Fluoro-2-methoxy-6-(2,2,2-trifluoroethoxy)-3-pyridyl]methyl]-1-methyl-pyrrolidine-2-carboxamide Hydrochloride] | < 5 | < 20 | > 70 | 
10 | COc1nc(OC2CC(F)(F)C2)c(F)cc1CNC(=O)[C@H](C)N1CCC1 [Example 101, (2S)-2-(Azetidin-1-yl)-N-[[6-(3,3-difluorocyclobutoxy)-5-fluoro-2-methoxy-3-pyridyl]methyl]propanamide Hydrochloride] | < 5 | < 20 | > 70 | 
11 | COc1nc(OCC(F)(F)C(F)F)c(F)cc1CN(C)C(=O)[C@@H]1CCCN1C [Example 102, (2S)—N-[[5-Fluoro-2-methoxy-6-(2,2,3,3-tetrafluoropropoxy)-3-pyridyl]methyl]-N,1-dimethyl-pyrrolidine-2-carboxamide Hydrochloride] | < 5 | 200 to 1000 | 50 to 70 | 
12 | COc1nc(OCC2CC(F)(F)C2(F)F)c(F)cc1CN(C)C(=O)[C@@H]1CCCN1C (stereo partly drawn) [Example 103, (2S)—N-[[5-Fluoro-2-methoxy-6-[(2,2,3,3-tetrafluorocyclobutyl)methoxy]-3-pyridyl]methyl]-N,1-dimethyl-pyrrolidine-2-carboxamide Hydrochloride] | < 5 | 20 to 200 | 50 to 70 | 
13 | COc1nc(OC2CC(OC)C2)c(F)cc1CNC(=O)[C@@H]1CCCN1 (stereo partly drawn) [Example 104, (2S)—N-[[5-Fluoro-2-methoxy-6-(3-methoxycyclobutoxy)-3-pyridyl]methyl]-pyrrolidine-2-carboxamide Hydrochloride] | < 5 | < 20 | > 70 | 
14 | COc1nc(OC2CC(C(F)(F)F)C2)c(F)cc1CNC(=O)[C@@H]1CCCN1 (stereo partly drawn) [Example 105, (2S)—N-[[5-Fluoro-2-methoxy-6-[3-(trifluoromethyl)cyclobutoxy]-3-pyridyl]-methyl]pyrrolidine-2-carboxamide Hydrochloride] | 5 to 50 | < 20 | > 70 | 
15 | COc1nc(OCC2CC(F)(F)C2)c(F)cc1CN(C)C(=O)[C@@H]1CCCN1C [Example 106, (2S)—N-[[6-[(3,3-Difluorocyclobutyl)methoxy]-5-fluoro-2-methoxy-3-pyridyl]-methyl]-N,1-dimethyl-pyrrolidine-2-carboxamide Hydrochloride] | < 5 | 20 to 200 | 30 to 50 | 
16 | COc1nc(OC2CC(F)(F)C2)cnc1CNC(=O)[C@@H]1CCCN1 [Example 107, (2S)—N-[[5-(3,3-Difluorocyclobutoxy)-3-methoxy-pyrazin-2-yl]methyl]pyrrolidine-2-carboxamide; 2,2,2-trifluoroacetic Acid] | < 5 | 200 to 1000 | > 70 | 
17 | COc1nc(OC2CCC(F)(F)CC2)cnc1CNC(=O)[C@@H]1CCCN1 [Example 108, (2S)—N-[[5-(4,4-Difluorocyclohexoxy)-3-methoxy-pyrazin-2-yl]methyl]pyrrolidine-2-carboxamide; 2,2,2-trifluoroacetic Acid] | < 5 | 20 to 200 | > 70 | 
18 | COc1nc(OCC(C)(C(F)(F)F)C(F)(F)F)c(F)cc1CNC(=O)[C@@H]1CCCN1 [Example 109, (2S)—N-[[5-Fluoro-2-methoxy-6-[3,3,3-trifluoro-2-methyl-2-(trifluoromethyl)propoxy]-3-pyridyl]methyl]pyrrolidine-2-carboxamide Hydrochloride] | 50 to 500 | < 20 | > 70 | 
19 | COc1nc(OCC(F)(F)C(F)(F)C(F)(F)F)c(F)cc1CNC(=O)[C@@H]1CCCN1 [Example 110, (2S)—N-[[5-Fluoro-6-(2,2,3,3,4,4,4-heptafluorobutoxy)-2-methoxy-3-pyridyl]-methyl]pyrrolidine-2-carboxamide Hydrochloride] |  | < 20 | > 70 | 5 to 50
20 | COc1nc(OC(C(F)(F)F)C(F)(F)F)c(F)cc1CNC(=O)[C@@H]1CCCN1 [Example 111, (2S)—N-[[5-Fluoro-2-methoxy-6-[2,2,2-trifluoro-1-(trifluoromethyl)ethoxy]-3-pyridyl]methyl]pyrrolidine-2-carboxamide Hydrochloride] | 5 to 50 | < 20 | > 70 | 
21 | COc1nc(OC2CC(F)(F)C2(F)F)c(F)cc1CNC(=O)[C@@H]1CCCN1 (stereo partly drawn) [Example 112, (2S)—N-[[5-Fluoro-2-methoxy-6-(2,2,3,3-tetrafluorocyclobutoxy)-3-pyridyl]methyl]pyrrolidine-2-carboxamide; 2,2,2-trifluoroacetic Acid] | < 5 | < 20 | > 70 | 
22 | COc1nc(OCC(F)(F)F)c(F)cc1CN(C)C(=O)[C@@H]1CCCN1C [Example 113, (2S)—N-[[5-Fluoro-2-methoxy-6-(2,2,2-trifluoroethoxy)-3-pyridyl]methyl]-N,1-dimethyl-pyrrolidine-2-carboxamide Hydrochloride] | < 5 | 200 to 1000 | 30 to 50 | 
23 | COc1nc(OC2CCC(F)(F)CC2)c(F)cc1CN(C)C(=O)[C@@H]1CCCN1 [Example 114, (2S)—N-[[6-(4,4-Difluorocyclohexoxy)-5-fluoro-2-methoxy-3-pyridyl]methyl]-N-methyl-pyrrolidine-2-carboxamide Hydrochloride] | 5 to 50 | < 20 | > 70 | 
24 | COc1nc(OCC2CC(F)(F)C2)c(F)cc1CN(C)C(=O)[C@@H]1CCCN1 [Example 115, (2S)—N-[[6-[(3,3-Difluorocyclobutyl)methoxy]-5-fluoro-2-methoxy-3-pyridyl]-methyl]-N-methyl-pyrrolidine-2-carboxamide Hydrochloride] | < 5 | < 20 | 50 to 70 | 
